From US20170219562A1, “EPIGENETIC COMPOUND SCREENING PLATFORM” (Legacy Emanuel Hospital & Health Center, priority 2016, published 2017)

How the values were obtained:
ADK-L cells = test: 5-methylcytosine (5-mC) ELISA of genomic DNA from treated ADK-L cells; assay type: cell-based; settings: compound at its IC50, genomic DNA isolated 24 hours after treatment, 100 ng DNA, n=8-9
Protocol: The IC50 for each ADK inhibitor was selected as the treatment dose. Total genomic DNA was isolated 24 hours after treatment and 100 ng of purified DNA was run on a 5-methylcytosine (5-mC) ELISA (Zymo Research Corp.) to quantify 5-methylcytosine. […] Data are represented as the mean±SEM (n=8-9). Statistical analysis is a One-way ANOVA (F(4,37)=2.95, p=0.033) followed by uncorrected Fisher's LSD post hoc test.
The IC50 of CBZ was selected as the treatment dose. Total genomic DNA was isolated 24 hours after treatment, and 100 ng of purified DNA was run on a 5-methylcytosine (5-mC) ELISA (Zymo Research Corp) to determine the amount of 5-methylcytosine. […] Data are represented as the mean±SEM (n=8-9). Statistical analysis is a One-way ANOVA for Panel A (F(2,23)=5.67, p=0.0099) followed by uncorrected Fisher's LSD post hoc test and Kruskal-Wallis test for Panel B (Kruskal-Wallis statistic=1.11, p=0.57).

ADK-S cells = test: 5-methylcytosine (5-mC) ELISA of genomic DNA from treated ADK-S cells; assay type: cell-based; settings: for DNA methylation levels in ADK-S cells compared to vehicle-treated ADK-S cells: compound at its IC50, 24 hours after treatment, n=4-9
Protocol: 100 ng of purified genomic DNA was run on a 5-methylcytosine (5-mC) ELISA (Zymo Research Corp.) to quantify 5-methylcytosine.
FIG. 8 is a pair of bar graphs plotting the amount of 5-methylcytosine detected in genomic DNA isolated from the ADK-null cell line (Panel A) and the ADK-S cell line (Panel B) of FIG. 3, in the absence or presence of various ADK inhibitors, with each amount normalized with respect to the amount detected for vehicle-treated ADK-null cells. ADK-null and ADK-S cells identify off target effects of ADK inhibitors on DNA methylation levels. […] The IC50 for each ADK inhibitor was selected as the treatment dose. Total genomic DNA was isolated 24 hours after treatment, and 100 ng of purified DNA was run on a 5-methylcytosine (5-mC) ELISA (Zymo Research Corp) to determine the amount of 5-methylcytosine. […] Data are represented as the mean±SEM (n=4-9). Statistical analysis is a One-way ANOVA followed by uncorrected Fisher's LSD post hoc test.
FIG. 9 is a pair of bar graphs plotting the amount of 5-methylcytosine detected in genomic DNA isolated from the ADK-L cell line (Panel A) and the ADK-S cell line (Panel B) of FIG. 3, in the absence or presence of carbamazepine, with vehicle-treated ADK-null cells as a control. […] The IC50 of CBZ was selected as the treatment dose. Total genomic DNA was isolated 24 hours after treatment, and 100 ng of purified DNA was run on a 5-methylcytosine (5-mC) ELISA (Zymo Research Corp) to determine the amount of 5-methylcytosine. […] Data are represented as the mean±SEM (n=8-9). Statistical analysis is a One-way ANOVA for Panel A (F(2,23)=5.67, p=0.0099) followed by uncorrected Fisher's LSD post hoc test and Kruskal-Wallis test for Panel B (Kruskal-Wallis statistic=1.11, p=0.57).

ADK = ADK (Homo sapiens, UniProt P55263); settings: cited from earlier work; for IC50: used as treatment dose, read-out: IC50 of ADK inhibitor
ADK, sequence (P55263 whole entry, species assumed): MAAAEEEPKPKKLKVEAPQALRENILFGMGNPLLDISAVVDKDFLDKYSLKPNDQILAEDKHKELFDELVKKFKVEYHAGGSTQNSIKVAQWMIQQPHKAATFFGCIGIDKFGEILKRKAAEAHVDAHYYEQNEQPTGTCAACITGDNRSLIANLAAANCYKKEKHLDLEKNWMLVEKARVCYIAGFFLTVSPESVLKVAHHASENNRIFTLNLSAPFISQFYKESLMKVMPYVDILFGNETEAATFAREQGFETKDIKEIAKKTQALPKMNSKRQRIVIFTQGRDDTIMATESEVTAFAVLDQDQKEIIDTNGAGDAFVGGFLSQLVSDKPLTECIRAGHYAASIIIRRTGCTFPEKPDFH

SMILES | DNA methylation (5-methylcytosine) in ADK-L cells versus vehicle alone (ADK-L cells) | DNA methylation levels in ADK-S cells compared to vehicle-treated ADK-S cells (ADK-S cells) | IC50 (ADK) [nM] | Interaction with ADK (ADK) | DNA methylation levels in CBZ-treated ADK-S cells compared to ADK-null cells (ADK-S cells; CBZ 24.5 nM, 24 hours after treatment, n=8-9, Kruskal-Wallis p=0.57)
Nc1ncnc2c1c(I)cn2[C@@H]1O[C@H](CO)[C@@H](O)[C@H]1O [5-ITU, 5-iodotubercidin] | significantly decreases DNA methylation | significantly increased |  |  | 
Nc1ncnc2nc(-c3ccc(N4CCOCC4)nc3)cc(-c3cccc(Br)c3)c12 [ABT-702] | Neither ABT-702 nor A-134974 alters DNA methylation |  | 1.7 |  | 
Nc1ncnc2c1c(I)cn2[C@@H]1C[C@H](N)[C@@H](O)[C@H]1O [A-134974] | Neither ABT-702 nor A-134974 alters DNA methylation | significantly increased | 0.06 |  | 
NC(=O)N1c2ccccc2C=Cc2ccccc21 [CBZ, Carbamazepine] | does not decrease DNA methylation |  |  | does not interact with ADK | not significantly different
